The record followed here is US11066425B1, “Oxo-substituted compound” (SUMITOMO DAINIPPON PHARMA CO., LTD., priority 2018, dated 2021).

Values joined by “and” are separate entries in the source; they are usually repeats but may differ in a detail not shown here. Identical values can stand only once. Counter-ions that a name gives are not always drawn. Some results are limits rather than exact numbers.

Test [1] deals with β-lactamase producing bacteria. As to the kind of experiment: Test Example 3: MIC of meropenem (MEPM) combined with test compound at fixed 4 μg/mL, broth microdilution, ratio to MEPM alone. The test is classed as cell-based. Conditions: for MIC of MEPM in combination with a test compound: test compound at fixed 4 μg/mL, numerator of the cell; for MIC of MEPM alone: no test compound, denominator of the cell, comparator for the example, in µg/mL. As for the experimental part:
Test Example 3: Evaluation of Minimum Inhibitory Concentration (MIC) of MEPM Against β-Lactamase Producing Bacteria
To evaluate the β-lactamase inhibitory activity of test compounds, the effect of combination of a test compound and a β-lactam agent against β-lactamase producing bacteria was evaluated. Meropenem (MEPM) was used as a β-lactam antimicrobial agent. The minimum inhibitory concentration (MIC) of MEPM against β-lactamase producing bacteria when a test compound was added at a fixed concentration (4 μg/mL) was measured by broth microdilution method (common ratio: 2).
(In general: Broth dilution looks for growth in wells or tubes with falling amounts of substance.)

Test [2] deals with β-lactamase producing bacteria. As to the kind of experiment: Test Example 1: MIC of meropenem (MEPM) combined with test compound at fixed 4 μg/mL, broth microdilution. The following applies: relative to MEPM alone. The test is classed as cell-based. The procedure, abridged:
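Meropenem MIC against β-lactamase producing bacteria measured by broth microdilution (2-fold series) with test compound held at 4 μg/mL.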

Setting [3] is: K. pneumoniae ATCC BAA-2344 (KPC).
The mark [4] stands for this setting: K. pneumoniae ATCC BAA-2524 (OXA-48).

Turning to “4,4-dihydroxy-8-({1-[3-(pyrrolidin-2-yl)propanoyl]azetidin-3-yl}oxy)-5-oxa-4-boranuidabicyclo[4.4.0]deca-l(6),7,9-triene-7-carboxylic acid disodium salt [Example 118]”, the MIC of MEPM in combination with a test compound in test [1] (setting [3]) and in test [1] (setting [4]) was at most 0.063 µg/mL in each case.
On to `NCCc1cn(CC(=O)N2CC(Oc3ccc4c(c3C(=O)O)O[B-](O)(O)CC4)C2)cn1` [Example 33, 8-[(1-{[4-(2-aminoethyl)-1H-imidazol-1-yl]acetyl}azetidin-3-yl)oxy]-4,4-dihydroxy-5-oxa-4-boranuidabicyclo[4.4.0]deca-l(6),7,9-triene-7-carboxylic acid disodium salt], for which, in test [2], the “Decrease of MIC of MEPM in combination with a test compound, K. pneumoniae ATCC BAA-2344 (KPC)” value is reported as “A (MIC of MEPM decreasing to less than 1/32 in combination with a test compound is indicated by A)” and the “Decrease of MIC of MEPM in combination with a test compound, K. pneumoniae ATCC BAA-2524 (OXA-48)” value is “B (decreasing from 1/32 to 1/16 is indicated by B)”.
In the same order, the values of `O=C(O)c1c(OC2CN(C(=O)c3ccc(O)c(O)c3)C2)ccc2c1OB(O)CC2` [Example 34, 7-{[1-(3,4-dihydroxybenzoyl)azetidin-3-yl]oxy}-2-hydroxy-3,4-dihydro-2H-1,2-benzoxaborinine-8-carboxylic acid] are “A (MIC of MEPM decreasing to less than 1/32 in combination with a test compound is indicated by A)” and “B (decreasing from 1/32 to 1/16 is indicated by B)”.
As to `O=C(O)c1c(OC2CN(C(=O)NO)C2)ccc2c1OB(O)CC2` [Example 35, 2-hydroxy-7-{[1-(hydroxycarbamoyl)azetidin-3-yl]oxy}-3,4-dihydro-2H-1,2-benzoxaborinine-8-carboxylic Acid], the “Decrease of MIC of MEPM in combination with a test compound, E. coli ATCC BAA-2340 (KPC)” value in test [2] (E. coli ATCC BAA-2340 (KPC)) is on record as “A (MIC of MEPM decreasing to less than 1/32 in combination with a test compound is indicated by A)”. Besides, in test [2], the “Decrease of MIC of MEPM in combination with a test compound, K. pneumoniae ATCC BAA-2344 (KPC)” value was “A (MIC of MEPM decreasing to less than 1/32 in combination with a test compound is indicated by A)” and the “Decrease of MIC of MEPM in combination with a test compound, K. pneumoniae ATCC BAA-2524 (OXA-48)” value was “B (decreasing from 1/32 to 1/16 is indicated by B)”.
Regarding `Cl.Cl.NC(C(=O)N1CC(Oc2ccc3c(c2C(=O)O)OB(O)CC3)C1)c1c[nH]cn1` (stereo not drawn) [Example 40, 7-({1-[2-amino-2-(1H-imidazol-4-yl)(2H)ethanoyl]azetidin-3-yl}oxy)-2-hydroxy-3,4-dihydro-2H-1,2-benzoxaborinine-8-carboxylic Acid Dihydrochloride], the MIC of MEPM in combination with a test compound in test [1] (setting [3]) and in test [1] (setting [4]) was 0.063 µg/mL throughout.
For the molecule `O=C(O)c1c(OC2CN(C(=O)C[C@@H]3CCCN3)C2)ccc2c1O[B-](O)(O)CC2.O=C(O)c1c(OC2CN(C(=O)C[C@@H]3CCCN3)C2)ccc2c1O[B-](O)(O)CC2.[Na+].[Na+]` [Example 127, 4,4-dihydroxy-8-[(1-{[(2S)-pyrrolidin-2-yl]acetyl}azetidin-3-yl)oxy]-5-oxa-4-boranuidabicyclo[4.4.0]deca-l(6),7,9-triene-7-carboxylic acid disodium salt], the MIC of MEPM in combination with a test compound in test [1] (setting [3]) and in test [1] (setting [4]) was at most 0.063 µg/mL throughout.
For `C[C@@H](O)[C@H]1C(=O)N2C(C(=O)O)=C(S[C@@H]3CN[C@H](C(=O)N(C)C)C3)[C@H](C)[C@H]12` [MEPM, meropenem, reference compound], the “MIC of MEPM alone” value in test [1] (E. coli ATCC BAA-2340 (KPC)) is 4 and 8; in test [1] (setting [4]), 2 and 1.
